The values below come from paper PMC8286840, “Identifying SARS-CoV-2 antiviral compounds by screening for small molecule inhibitors of Nsp3 papain-like protease” (Biochemical Journal, 2021).

The structures appear in SMILES notation. Like-named read-outs stand apart in the source and are kept apart here.

The target in assay [1] is T1, SARS-CoV-2 PLpro (nsp3 1564–1878) (Severe acute respiratory syndrome coronavirus 2, UniProt P0DTD1). Description: biochemical. More on the design: FRET-quenched peptide (Pro3) cleavage by PLpro, 10 min pre-incubation, slope over 20 min, normalised to no-compound control. Particulars: read-out: % of control remaining.
Assay [2] deals with T1, SARS-CoV-2 PLpro (nsp3 1564–1878). Nature of the assay: biochemical. The settings on record: read-out: % of control remaining. The arrangement: FRET-quenched peptide (Pro3) cleavage by PLpro, 10 min pre-incubation, slope over 20 min, normalised to no-compound control. The source holds these as a separate data set.

Turning to `CCCCCCCCCCCCc1ccc(S(=O)(=O)Nc2nncs2)cc1` [PHT-427], the remaining activity at 1.25 µM in assay [1] (Well no.=4959, low concentration screen) amounted to 96.5%. In assay [2] (Well no.=4959, high concentration screen), the remaining activity at 3.75 µM turned out to be 98.1%.

As to `Oc1ccc(-c2c(-c3ccccc3)nn3c(C(F)(F)F)cc(C(F)(F)F)nc23)cc1` [PHTPP], in assay [1], the remaining activity at 1.25 µM was 103%. The remaining activity at 3.75 µM in assay [2] is 101%.

For `COc1cc(Nc2nc3ccccc3nc2NS(=O)(=O)c2ccc(NC(=O)c3ccc(C)c(OC)c3)cc2)cc(OC)c1` [PI3K-IN-1], the remaining activity at 1.25 µM in assay [1] (Well no.=8600, low concentration screen) turned out to be 102%. The remaining activity at 3.75 µM in assay [2] (Well no.=8600, high concentration screen) worked out at 97.8%.

Take `O=C1NC(=O)/C(=C/c2ccc3nccnc3c2)S1` [PI 3-Kg Inhibitor]: in assay [1] (Well no.=2515, low concentration screen), the remaining activity at 1.25 µM stood at 99.9%. The remaining activity at 3.75 µM in assay [2] (Well no.=2515, high concentration screen) was 106%.

Consider `Nc1ccc(-c2cccc3c(=O)cc(N4CCOCC4)oc23)cc1` [PI 828 - 2-(4-Morpholinyl)-8-(4-aminopheny)l-4H-1-benzopyran-4-one], for which the remaining activity at 1.25 µM in assay [1] (Well no.=2628, low concentration screen) was 98.1%. In addition, the remaining activity at 3.75 µM in assay [2] (Well no.=2628, high concentration screen) amounted to 102%.

For `Oc1cccc(-c2nc(N3CCOCC3)c3oc4ncccc4c3n2)c1` [PI-103], the remaining activity at 1.25 µM in assay [1] (Well no.=2367, low concentration screen) turned out to be 100%. For the same compound, the remaining activity at 3.75 µM in assay [2] (Well no.=2367, high concentration screen) came to 100%.

Consider `CCCc1ccc(OCC(=O)N(Cc2nc(-c3cccnc3)no2)C(C)C)cc1` [PI-1840], for which the remaining activity at 1.25 µM in assay [1] (Well no.=8718, low concentration screen) came out at 94.8%. For the same compound, the remaining activity at 3.75 µM in assay [2] (Well no.=8718, high concentration screen) amounted to 98.4%.

Regarding `Cc1ccc([N+](=O)[O-])cc1S(=O)(=O)N(C)/N=C/c1cnc2ccc(Br)cn12` [PIK 75], the remaining activity at 1.25 µM in assay [1] (Well no.=2993, low concentration screen) turned out to be 96.4%. Besides, in assay [2] (Well no.=2993, high concentration screen), the remaining activity at 3.75 µM is 96.1%.

Consider `COc1ccc2c3n(c(=NC(=O)c4cccnc4)nc2c1OC)CCN3` [PIK-90], for which the remaining activity at 1.25 µM in assay [1] (Well no.=2747, low concentration screen) turned out to be 91.2%. In assay [2] (Well no.=2747, high concentration screen), the remaining activity at 3.75 µM was determined as 95%.

On to `CC(=O)Nc1nc(C)c(-c2ccc(Cl)c(S(=O)(=O)NCCO)c2)s1` [PIK-93], for which the remaining activity at 1.25 µM in assay [1] (Well no.=4911, low concentration screen) came to 95.7%. The remaining activity at 3.75 µM in assay [2] (Well no.=4911, high concentration screen) worked out at 96.9%.

As for `CCCOc1ccc(/C=C2/SC(=O)NC2=O)cc1` [PIM1/2 Kinase Inhibitor VI], the remaining activity at 1.25 µM in assay [1] (Well no.=2571, low concentration screen) came out at 97.6%. The remaining activity at 3.75 µM in assay [2] (Well no.=2571, high concentration screen) worked out at 97%.

For `CN(C)CC(=O)Nc1ccc2[nH]c(=O)c3ccccc3c2c1` [PJ-34], the remaining activity at 1.25 µM in assay [1] (Well no.=906, low concentration screen) turned out to be 99.3%. In assay [2] (Well no.=906, high concentration screen), the remaining activity at 3.75 µM was 95.6%.

With `Cc1nnc(NC(=O)c2nc(S(=O)(=O)Cc3ccc(F)cc3)ncc2Cl)s1` [PK11007], in assay [1] (Well no.=6834, low concentration screen), the remaining activity at 1.25 µM came out at 86.8%. The remaining activity at 3.75 µM in assay [2] (Well no.=6834, high concentration screen) worked out at 87.8%.

For the compound `CCC(C)N(C)C(=O)c1cc2ccccc2c(-c2ccccc2Cl)n1` (stereo not drawn) [PK 11195], the remaining activity at 1.25 µM in assay [1] (Well no.=185, low concentration screen) came to 99.9%. In addition, the remaining activity at 3.75 µM in assay [2] (Well no.=185, high concentration screen) is 98.2%.

Consider `C[C@@H](Nc1ncnc2[nH]c(-c3ccc(O)cc3)cc12)c1ccccc1` [PKI-166], for which the remaining activity at 1.25 µM in assay [1] (Well no.=6037, low concentration screen) was 94.4%. Also, in assay [2] (Well no.=6037, high concentration screen), the remaining activity at 3.75 µM was found to be 78.3%.

Take `CCn1nnc2c(N3CCOCC3)nc(-c3ccc(NC(=O)Nc4ccc(C(=O)N5CCN(C)CC5)cc4)cc3)nc21` [PKI-402]: the remaining activity at 1.25 µM in assay [1] (Well no.=4699, low concentration screen) was determined as 105%. Further, in assay [2] (Well no.=4699, high concentration screen), the remaining activity at 3.75 µM amounted to 101%.

For `O=C1Nc2ccc(Cl)cc2/C1=C/c1cc(Cl)c(O)c(Cl)c1` [PKR Inhibitor, Negative Control], in assay [1] (Well no.=2513, low concentration screen), the remaining activity at 1.25 µM stood at 96.5%. In addition, the remaining activity at 3.75 µM in assay [2] (Well no.=2513, high concentration screen) worked out at 99%.

Consider `O=C1Nc2ccc3ncsc3c2/C1=C/c1cnc[nH]1` [PKR Inhibitor], for which, in assay [1] (Well no.=2511, low concentration screen), the remaining activity at 1.25 µM amounted to 103%. In addition, in assay [2] (Well no.=2511, high concentration screen), the remaining activity at 3.75 µM worked out at 103%.

Consider `CCCS(=O)(=O)Nc1ccc(F)c(C(=O)c2c[nH]c3ncc(Cl)cc23)c1F` [PLX4720], for which the remaining activity at 1.25 µM in assay [1] (Well no.=2795, low concentration screen) turned out to be 97.5%. Also, in assay [2] (Well no.=2795, high concentration screen), the remaining activity at 3.75 µM came out at 99.9%.

Consider `O=C(O)CCC(CP(=O)(O)O)C(=O)O` (stereo not drawn) [PMPA tetrasodium], for which the remaining activity at 1.25 µM in assay [1] (Well no.=1219, low concentration screen) was determined as 105%. In addition, the remaining activity at 3.75 µM in assay [2] (Well no.=1219, high concentration screen) is 103%.

`Nc1cc(Nc2ccc(S(N)(=O)=O)cc2)ncn1` [PNU112455A]: the remaining activity at 1.25 µM in assay [1] (Well no.=5446, low concentration screen) is 100%. Further, the remaining activity at 3.75 µM in assay [2] (Well no.=5446, high concentration screen) is 102%.
